The source of these data is ChEMBL document CHEMBL1144590, “Thienopyridine urea inhibitors of KDR kinase” (Bioorg Med Chem Lett, 2007).

Data set [1] has as its target T1, Vascular endothelial growth factor receptor 2 (Homo sapiens, UniProt P35968). Type of data set: functional, cell-based, NIH3T3.
For data set [2], the target named is T1, Vascular endothelial growth factor receptor 2.
The nature of data set [3]: Half life in mouse at 3 mg/kg, iv. Type of data set: ADME, organism-based. Also on record: dose 3 mg/kg, route intravenous. The settings on record: in vivo.
In the next data set the target is Cytochrome P450 3A4 (Homo sapiens, UniProt P08684). The data set is described as follows: Inhibition of CYP3A4. Type of data set: ADME.
Another data set relates to Mus musculus. Briefly: Inhibition of estradiol-induced mouse uterine edema […]. Type of data set: functional.

As a reminder, the IC50 is the concentration that inhibits the measured activity by half. In general, half-life refers to the time needed for the level to fall by half in the phase considered. Usually ED50 stands for the midpoint of the dose-response relation. High values mean weaker potency, low ones greater potency.

T1 sequence (P35968 whole entry): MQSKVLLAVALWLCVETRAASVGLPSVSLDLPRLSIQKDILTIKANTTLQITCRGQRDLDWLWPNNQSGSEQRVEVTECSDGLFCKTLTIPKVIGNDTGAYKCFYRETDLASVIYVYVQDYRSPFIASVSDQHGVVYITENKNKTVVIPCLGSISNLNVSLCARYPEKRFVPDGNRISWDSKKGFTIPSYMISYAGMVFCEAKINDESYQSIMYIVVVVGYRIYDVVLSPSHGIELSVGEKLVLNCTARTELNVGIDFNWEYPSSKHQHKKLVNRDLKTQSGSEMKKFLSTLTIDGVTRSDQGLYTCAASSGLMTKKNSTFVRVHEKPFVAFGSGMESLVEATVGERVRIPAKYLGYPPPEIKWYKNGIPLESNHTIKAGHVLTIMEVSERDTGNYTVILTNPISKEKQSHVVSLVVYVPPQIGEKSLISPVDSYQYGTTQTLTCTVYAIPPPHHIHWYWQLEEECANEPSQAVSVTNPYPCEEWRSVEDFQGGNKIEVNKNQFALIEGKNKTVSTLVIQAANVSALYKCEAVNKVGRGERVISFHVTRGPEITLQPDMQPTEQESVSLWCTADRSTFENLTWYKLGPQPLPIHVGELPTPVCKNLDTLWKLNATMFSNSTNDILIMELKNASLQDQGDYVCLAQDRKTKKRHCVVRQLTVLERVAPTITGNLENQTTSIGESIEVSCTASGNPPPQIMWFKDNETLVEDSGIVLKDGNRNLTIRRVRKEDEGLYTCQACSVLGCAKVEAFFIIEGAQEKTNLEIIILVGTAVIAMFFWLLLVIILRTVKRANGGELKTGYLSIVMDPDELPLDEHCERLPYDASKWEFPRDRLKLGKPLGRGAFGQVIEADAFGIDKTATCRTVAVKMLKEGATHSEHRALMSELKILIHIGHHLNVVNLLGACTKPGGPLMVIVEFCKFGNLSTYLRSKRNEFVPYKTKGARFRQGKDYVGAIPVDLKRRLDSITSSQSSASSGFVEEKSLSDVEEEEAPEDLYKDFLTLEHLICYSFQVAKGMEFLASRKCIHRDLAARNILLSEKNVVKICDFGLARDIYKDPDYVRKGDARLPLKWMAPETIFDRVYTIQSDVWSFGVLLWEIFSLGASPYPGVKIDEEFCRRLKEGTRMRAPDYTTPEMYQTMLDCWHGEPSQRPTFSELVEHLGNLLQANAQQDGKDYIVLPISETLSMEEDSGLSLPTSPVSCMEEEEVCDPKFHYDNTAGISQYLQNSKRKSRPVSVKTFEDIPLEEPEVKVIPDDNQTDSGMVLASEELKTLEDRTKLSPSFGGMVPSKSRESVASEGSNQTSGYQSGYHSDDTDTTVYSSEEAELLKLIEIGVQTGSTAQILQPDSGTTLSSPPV
Sequence of Cytochrome P450 3A4 (P08684 whole entry): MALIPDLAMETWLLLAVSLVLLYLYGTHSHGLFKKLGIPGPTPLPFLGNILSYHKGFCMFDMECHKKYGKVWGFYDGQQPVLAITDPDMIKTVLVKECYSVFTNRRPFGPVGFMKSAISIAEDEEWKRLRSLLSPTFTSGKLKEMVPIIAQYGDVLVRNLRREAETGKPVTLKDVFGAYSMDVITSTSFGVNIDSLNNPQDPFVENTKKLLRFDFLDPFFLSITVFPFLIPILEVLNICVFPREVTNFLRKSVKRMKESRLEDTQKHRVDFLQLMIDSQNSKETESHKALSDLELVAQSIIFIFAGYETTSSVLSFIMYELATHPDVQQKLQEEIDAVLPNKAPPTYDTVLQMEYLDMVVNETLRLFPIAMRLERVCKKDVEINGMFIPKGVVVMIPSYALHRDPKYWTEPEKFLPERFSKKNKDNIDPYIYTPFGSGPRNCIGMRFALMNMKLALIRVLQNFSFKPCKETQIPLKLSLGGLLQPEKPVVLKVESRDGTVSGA

`Cc1cc(C)cc(NC(=O)Nc2ccc(-c3csc4ccnc(N)c34)cc2)c1`: the IC50 in data set [1] stood at 48 nM; in data set [2] it was 16 nM. In data set [2], `Nc1nccc2scc(-c3ccc(NC(=O)NC4CCCCC4)cc3)c12` came in with an IC50 of 491 nM. That is a sub-micromolar value. With `CNC(=O)c1cccc(-c2cnc(N)c3c(-c4ccc(NC(=O)Nc5cccc(C)c5)cc4)csc23)c1`, the IC50 was 56 nM in data set [1] and 11 nM in data set [2]. Molecule `Cc1cccc(NC(=O)N(C)c2ccc(-c3csc4ccnc(N)c34)cc2)c1` yielded an IC50 in data set [2] of 23 nM. The molecule `Cc1cccc(N(C)C(=O)Nc2ccc(-c3csc4ccnc(N)c34)cc2)c1` displayed an IC50 in data set [2] of 4900 nM. For the molecule `Nc1nccc2scc(-c3ccc(NC(=O)c4ccccc4)cc3)c12`, the IC50 in data set [2] was determined as 12000 nM.

`Cc1ccccc1NC(=O)Nc1ccc(-c2csc3ccnc(N)c23)cc1` displayed an IC50 in data set [2] of 152 nM. Take `Nc1nccc2scc(-c3ccc(NC(=O)Nc4ccsc4)cc3)c12`: the IC50 is 61 nM in data set [1] and 38 nM in data set [2]. Take `Nc1nccc2scc(-c3ccc(NC(=O)Nc4ccccc4)cc3)c12`: the IC50 is 72 nM in data set [1] and 56 nM in data set [2]. On to `CCc1cccc(NC(=O)Nc2ccc(-c3csc4ccnc(N)c34)cc2)c1`, for which the IC50 was found to be 32 nM in data set [1] and 25 nM in data set [2]. Regarding `Cc1cccc(NC(=O)Nc2ccc(-c3c(C)sc4ccnc(N)c34)cc2)c1`, in data set [2], the IC50 stood at 27 nM. This counts as double-digit nanomolar. Still for that read-out and setting: for `Cc1cccc(NC(=O)Nc2ccc(-c3csc4c(-c5cncc6ccccc56)cnc(N)c34)cc2)c1` the value was 388 nM; for `Nc1nccc2scc(-c3ccc(NC(=O)NC4CCCC4)cc3)c12`, 420 nM. On to `Cc1ccc(NC(=O)Nc2ccc(-c3csc4ccnc(N)c34)cc2)cc1`, for which the IC50 in data set [1] stood at 141 nM; in data set [2], 26 nM. For the molecule `Nc1nccc2scc(-c3ccc(NC(=O)Nc4ccc5ccccc5c4)cc3)c12`, the IC50 in data set [1] came to 15 nM; in data set [2], 21 nM.

In data set [2], `Cc1cccc(NC(=O)Nc2cccc(-c3csc4ccnc(N)c34)c2)c1` displayed an IC50 of 250 nM. Turning to `Cc1cccc(CC(=O)Nc2ccc(-c3csc4ccnc(N)c34)cc2)c1`, the 50% inhibitory concentration (IC50) in data set [2] stood at 520 nM. Still for that read-out and setting: for `Cc1cccc(NC(=O)Cc2ccc(-c3csc4ccnc(N)c34)cc2)c1` the value was 94 nM. Take `Cc1cccc(NC(=O)Nc2ccc(-c3csc4c(-c5cncnc5)cnc(N)c34)cc2)c1`: the IC50 in data set [1] amounted to 1 nM; in data set [2], 8 nM.

Regarding `Nc1nccc2scc(-c3ccc(NC(=O)Nc4cccc5ccccc45)cc3)c12`, the figures for the IC50 in data set [1] and in data set [2] were 895 nM and 75 nM, respectively. For the molecule `Cc1cccc(NC(=S)Nc2ccc(-c3csc4ccnc(N)c34)cc2)c1`, inhibition in data set [2] was half-maximal at 410 nM (IC50). The molecule `Nc1nccc2scc(-c3ccccc3)c12` returned an IC50 in data set [2] above 12500 nM. With `N#Cc1cccc(NC(=O)Nc2ccc(-c3csc4ccnc(N)c34)cc2)c1`, the IC50 in data set [1] came out at 198 nM; in data set [2] it was 45 nM. In data set [2], `Nc1ccc(-c2csc3ccnc(N)c23)cc1` had an IC50 of 4900 nM. With `Cc1ccc(NC(=O)Nc2ccc(-c3csc4ccnc(N)c34)cc2)cc1C`, the IC50 came out at 41 nM in data set [1] and 10 nM in data set [2]. Taken in the same sequence, the figures for `Cc1cccc(NC(=O)Nc2ccc(-c3csc4c(-c5ccccc5)cnc(N)c34)cc2)c1` were 33 nM and 13 nM. Turning to `Nc1nccc2scc(-c3ccc(NC(=O)Nc4cccs4)cc3)c12`, the IC50 in data set [1] was found to be 48 nM; in data set [2], 30 nM. `Cc1cccc(NC(=O)Nc2ccc(-c3csc4c(-c5cccnc5)cnc(N)c34)cc2)c1` showed a half-life in data set [3] of 24 min. The same molecule displayed an IC50 on Cytochrome P450 3A4 of 250 nM. In the data set on Mus musculus, this molecule gave an ED50 of 2.1 mg/kg. For the molecule `Cc1cccc(NC(=O)Nc2ccc(-c3csc4c(-c5ccc(O)cc5)cnc(N)c34)cc2)c1`, the IC50 in data set [1] was found to be 29 nM; in data set [2], 11 nM.
